The source of these data is patent US11084786B2, “Compounds and pharmaceutical composition associated with ubiquitination-proteasome system” (CALGENT BIOTECHNOLOGY CO., LTD., priority 2015, dated 2021).

What all share (format): cell-based
One experiment relates to HL-60. As to the kind of experiment: Growth inhibition assay (MTT), HL-60. Particulars: Homo sapiens, HL-60 cells, 48 hours exposure, read-out: HL-60 IC50 (μM) Mean ± S.E. How it is done: (§1) Antiproliferative Activity Against Human Normal and Cancer Cell Lines Using Growth Inhibition Assay (GI50)
(§2) The compounds of the invention were subjected to growth inhibition assay. Cells were seeded in 96-well plastic plates and exposed to MPT0L132, MPT0L133, and MPT0L134 for 48 hours. Cell viability was assessed using the 3-(4,5-dimethylthiazol-2-yl)-2,5-diphenyltetrazolium bromide assay. Growth inhibition was expressed as the percentage of surviving cells in drug-treated versus DMSO-treated control cells.

The subject of the next experiment is Hep3B. The experiment is described as follows: Growth inhibition assay (MTT), Hep3B. Particulars: Homo sapiens, Hep3B cells, 48 hours exposure, read-out: Hep3B GI50 (μM) Mean ± S.E. How it is done: as §1, §2
The test system of the next experiment is MDA-MB-231. The experiment is described as follows: Growth inhibition assay (MTT), MDA-MB-231. Particulars: Homo sapiens, MDA-MB-231 cells, 48 hours exposure, read-out: MDA-MB-231 GI50 (μM) Mean ± S.E. How it is done: as §1, §2
The test system of the next experiment is HCT-116. As to the kind of experiment: Growth inhibition assay (MTT), HCT-116. Particulars: Homo sapiens, HCT-116 cells, 48 hours exposure, read-out: HCT-116 GI50 (μM) Mean ± S.E. How it is done:
as §1, §2

Take `CN(C)CCNC(=O)c1ccc(CNC2=C(Cl)C(=O)c3ccccc3C2=O)cc1` [MPT0L132, 4-(((3-chloro-1,4-dioxo-1,4-dihydronaphthalen-2-yl)amino)methyl)-N-(2-(dimethylamino)ethyl)benzamide]: in the experiment on HL-60, the IC50 was 2.5 ± 0.15 µM. Besides, the GI50 in the experiment on Hep3B is 10 to 30 µM; in the experiment with MDA-MB-231, 10 to 30 µM; in the experiment with HCT-116, 3.69 ± 0.24 µM.

With `O=C(NCCN1CCCC1)c1ccc(CNC2=C(Cl)C(=O)c3ccccc3C2=O)cc1` [MPT0L133, 4-(((3-chloro-1,4-dioxo-1,4-dihydronaphthalen-2-yl)amino)methyl)-N-(2-(pyrrolidin-1-yl)ethyl)benzamide], in the experiment on HL-60, the IC50 came to 1.67 ± 0.27 µM. Further, the GI50 with Hep3B was 10 to 30 µM; with MDA-MB-231, 10 to 30 µM; in the experiment with HCT-116 it was 4.04 ± 0.65 µM.

On to `CCN(CC)CCNC(=O)c1ccc(CNC2=C(Cl)C(=O)c3ccccc3C2=O)cc1` [MPT0L134, 4-(((3-chloro-1,4-dioxo-1,4-dihydronaphthalen-2-yl)amino)methyl)-N-(2-(diethylamino)ethyl)benzamide], for which the IC50 in the experiment with HL-60 was found to be 2.52 ± 0.12 µM. Further, the GI50 is 10 to 30 µM in the experiment with Hep3B, 10 to 30 µM with MDA-MB-231 and 3.53 ± 0.24 µM in the experiment on HCT-116.
